For eleven molecules, T/C results are on record in PubChem BioAssay AID194 (DTP/NCI, 2004).

Molecules are shown by their SMILES. Several values for one entry are separate records, joined by “and”; a condition that tells them apart may be missing. Equal values may be shown once. Results filed as inconclusive are left out.

The subject of the test is BDF1 mice, B16 melanoma s.c., survival/tumor T/C. Nature of the test: NCI In Vivo Anticancer Drug Screen. Data for tumor model B16 Melanoma (subcutaneous) in B6D2F1 (BDF1) mice. The protocol:
The antitumor activity of compounds was measured in mice bearing transplantable tumors. Survival or tumor size were measured and the results are expressed as the measurement made in the treated group (T) divided by the measurement made in the vehicle treated control group (C). The tumor model used in this assay is B16 Melanoma (subcutaneous) in B6D2F1 (BDF1) mice

With `CSCS(=O)C[C@H](CO)NC(=O)/C=C/c1c(C)[nH]c(=O)[nH]c1=O` (stereo partly specified), the T/C is 90 % of control (endpoint: median survival time, dose: 0.08 mg/kg/injection, schedule: Q01DX009 (ip), vehicle: water, higher = longer survival); 112 % of control (endpoint: median survival time, dose: 0.15 mg/kg/injection, schedule: Q01DX009 (ip), vehicle: water, higher = longer survival); 96 % of control (endpoint: median survival time, dose: 0.3 mg/kg/injection, schedule: Q01DX009 (ip), vehicle: water, higher = longer survival); 100 % of control (endpoint: median survival time, dose: 0.6 mg/kg/injection, schedule: Q01DX009 (ip), vehicle: water, higher = longer survival).

For `C[n+]1c(/C=C\C=C\N2CCCCC2)sc2ccccc21`, the T/C (endpoint: median survival time, dose: 0.01 mg/kg/injection, schedule: Q01DX009 (ip), vehicle: Klucel (hydroxypropylcellulose) (HPC), higher = longer survival) was 188 % of control; the T/C (endpoint: median survival time, dose: 0.02 mg/kg/injection, schedule: Q01DX009 (ip), vehicle: Klucel (hydroxypropylcellulose) (HPC), higher = longer survival) is 170 % of control; the T/C (endpoint: median survival time, dose: 0.05 mg/kg/injection, schedule: Q01DX009 (ip), vehicle: Klucel (hydroxypropylcellulose) (HPC), higher = longer survival) was 160 % of control; the T/C (endpoint: median survival time, dose: 0.1 mg/kg/injection, schedule: Q01DX009 (ip), vehicle: Klucel (hydroxypropylcellulose) (HPC), higher = longer survival) was 171 % of control; the T/C (endpoint: median survival time, dose: 0.4 mg/kg/injection, schedule: Q01DX009 (ip), vehicle: Klucel (hydroxypropylcellulose) (HPC), higher = longer survival) is 121 % of control.

Turning to `CC(=O)O[C@H]1C(=O)[C@@]2(C)[C@H]([C@H](OC(=O)c3ccccc3)[C@]3(O)C[C@H](OC(=O)[C@H](O)[C@@H](NC(=O)c4ccccc4)c4ccccc4)C(C)=C1C3(C)C)[C@]1(OC(C)=O)CO[C@@H]1C[C@@H]2O`, the T/C is, setting by setting: (endpoint: median survival time, dose: 1.32 mg/kg/injection, schedule: Q01DX009 (ip), vehicle: Klucel (hydroxypropylcellulose) (HPC), higher = longer survival) 91 % of control; (endpoint: median survival time, dose: 1.32 mg/kg/injection, schedule: Q01DX009 (ip), vehicle: other, higher = longer survival) 100 % of control; (endpoint: median survival time, dose: 1.98 mg/kg/injection, schedule: Q01DX009 (ip), vehicle: Klucel (hydroxypropylcellulose) (HPC), higher = longer survival) 95 % of control; (endpoint: median survival time, dose: 1.98 mg/kg/injection, schedule: Q01DX009 (ip), vehicle: other, higher = longer survival) 88 % of control; (endpoint: median survival time, dose: 2.96 mg/kg/injection, schedule: Q01DX009 (ip), vehicle: Klucel (hydroxypropylcellulose) (HPC), higher = longer survival) 116 % of control; (endpoint: median survival time, dose: 2.96 mg/kg/injection, schedule: Q01DX009 (ip), vehicle: other, higher = longer survival) 88 % of control. Moreover, the T/C by setting is: (endpoint: median survival time, dose: 4.0 mg/kg/injection, schedule: Q01DX009 (ip), vehicle: Klucel (hydroxypropylcellulose) (HPC), higher = longer survival) 93 % of control; (endpoint: median survival time, dose: 4.44 mg/kg/injection, schedule: Q01DX009 (ip), vehicle: other, higher = longer survival) 123 % of control; (endpoint: median survival time, dose: 6.0 mg/kg/injection, schedule: Q01DX009 (ip), vehicle: Klucel (hydroxypropylcellulose) (HPC), higher = longer survival) 97 % of control; (endpoint: median survival time, dose: 6.67 mg/kg/injection, schedule: Q01DX009 (ip), vehicle: Klucel (hydroxypropylcellulose) (HPC), higher = longer survival) 117 % of control; (endpoint: median survival time, dose: 9.0 mg/kg/injection, schedule: Q01DX009 (ip), vehicle: Klucel (hydroxypropylcellulose) (HPC), higher = longer survival) 93 % of control; (endpoint: median survival time, dose: 11.0 mg/kg/injection, schedule: Q04DX003 (ip), vehicle: Klucel (hydroxypropylcellulose) (HPC), higher = longer survival) 102 % of control. The T/C was 97 % of control (endpoint: median survival time, dose: 13.0 mg/kg/injection, schedule: Q01DX001 (ip), vehicle: Klucel (hydroxypropylcellulose) (HPC), higher = longer survival); 91 % of control (endpoint: median survival time, dose: 16.0 mg/kg/injection, schedule: Q04DX003 (ip), vehicle: Klucel (hydroxypropylcellulose) (HPC), higher = longer survival); 122 % of control (endpoint: median survival time, dose: 20.0 mg/kg/injection, schedule: Q01DX001 (ip), vehicle: Klucel (hydroxypropylcellulose) (HPC), higher = longer survival); 93 % of control (endpoint: median survival time, dose: 24.0 mg/kg/injection, schedule: Q04DX003 (ip), vehicle: Klucel (hydroxypropylcellulose) (HPC), higher = longer survival); 106 % of control (endpoint: median survival time, dose: 30.0 mg/kg/injection, schedule: Q01DX001 (ip), vehicle: Klucel (hydroxypropylcellulose) (HPC), higher = longer survival).

On to `O=[N+]([O-])c1ccc(/C=N/c2ncc(Br)s2)o1`, for which the T/C runs as follows: (endpoint: median survival time, dose: 1.56 mg/kg/injection, schedule: Q01DX009 (ip), vehicle: Klucel (hydroxypropylcellulose) (HPC), higher = longer survival) 123 % of control; (endpoint: median survival time, dose: 3.12 mg/kg/injection, schedule: Q01DX009 (ip), vehicle: Klucel (hydroxypropylcellulose) (HPC), higher = longer survival) 92 % of control; (endpoint: median survival time, dose: 3.13 mg/kg/injection, schedule: Q01DX009 (ip), vehicle: Klucel (hydroxypropylcellulose) (HPC), higher = longer survival) 121 % of control; (endpoint: median survival time, dose: 6.25 mg/kg/injection, schedule: Q01DX009 (ip), vehicle: Klucel (hydroxypropylcellulose) (HPC), higher = longer survival) 110 % of control and 111 % of control; (endpoint: median survival time, dose: 12.5 mg/kg/injection, schedule: Q01DX009 (ip), vehicle: Klucel (hydroxypropylcellulose) (HPC), higher = longer survival) 114 % of control.

As for `Cc1c(N)nc([C@H](CC(N)=O)NC[C@H](N)C(N)=O)nc1C(=O)N[C@H](C(=O)N[C@H](C)[C@@H](O)CC(=O)N[C@H](C(=O)NC(O[C@@H]1O[C@@H](C)[C@@H](N)[C@@H](O)[C@H]1O)C(O)c1nc(-c2nc(C(=O)NCCCCN)cs2)cs1)[C@@H](C)O)[C@@H](O[C@@H]1O[C@@H](CO)[C@@H](O)[C@H](O)[C@@H]1O[C@H]1O[C@H](CO)[C@@H](O)[C@H](OC(N)=O)[C@@H]1O)c1c[nH]cn1` (stereo partly specified), the T/C was 109 % of control (endpoint: median survival time, dose: 0.12 mg/kg/injection, schedule: Q01DX009 (ip), vehicle: water, higher = longer survival); 89 % of control (endpoint: median survival time, dose: 0.25 mg/kg/injection, schedule: Q01DX009 (ip), vehicle: water, higher = longer survival); 180 % of control (endpoint: median survival time, dose: 1.0 mg/kg/injection, schedule: Q01DX009 (ip), vehicle: saline, higher = longer survival); 180 % of control (endpoint: median survival time, dose: 2.0 mg/kg/injection, schedule: Q01DX009 (ip), vehicle: saline, higher = longer survival); 91 % of control (endpoint: median survival time, dose: 2.0 mg/kg/injection, schedule: Q01DX009 (ip), vehicle: water, higher = longer survival); 180 % of control (endpoint: median survival time, dose: 4.0 mg/kg/injection, schedule: Q01DX009 (ip), vehicle: saline, higher = longer survival). Further, the T/C was 206 % of control (endpoint: median survival time, dose: 8.0 mg/kg/injection, schedule: Q01DX009 (ip), vehicle: saline, higher = longer survival); 174 % of control (endpoint: median survival time, dose: 12.0 mg/kg/injection, schedule: Q01DX009 (ip), vehicle: saline, higher = longer survival); 180 % of control (endpoint: median survival time, dose: 16.0 mg/kg/injection, schedule: Q01DX009 (ip), vehicle: saline, higher = longer survival).

Take `CC1(C)N=C(N)N=C(N)N1c1ccc(OCCCNC(=O)Nc2cccc(S(=O)(=O)F)c2)c(Cl)c1`: the T/C was 115 % of control (endpoint: median survival time, dose: 50.0 mg/kg/injection, schedule: Q01DX009 (ip), vehicle: saline, higher = longer survival) and 91 % of control (endpoint: median survival time, dose: 100.0 mg/kg/injection, schedule: Q01DX009 (ip), vehicle: saline, higher = longer survival).

Consider `CC1(C)CC(O)(C(Cl)c2ccccc2)C(=O)c2ccccc21` (stereo unspecified), for which the T/C is 96 % of control (endpoint: median survival time, dose: 88.0 mg/kg/injection, schedule: Q01DX009 (ip), vehicle: distilled water + Tween-80, higher = longer survival); 97 % of control (endpoint: median survival time, dose: 133.0 mg/kg/injection, schedule: Q01DX009 (ip), vehicle: distilled water + Tween-80, higher = longer survival); 93 % of control (endpoint: median survival time, dose: 200.0 mg/kg/injection, schedule: Q01DX009 (ip), vehicle: distilled water + Tween-80, higher = longer survival); 89 % of control (endpoint: median survival time, dose: 300.0 mg/kg/injection, schedule: Q01DX009 (ip), vehicle: distilled water + Tween-80, higher = longer survival); 71 % of control (endpoint: median tumor weight (est.), dose: 133.0 mg/kg/injection, schedule: Q01DX009 (ip), vehicle: distilled water + Tween-80, higher = larger tumour); 106 % of control (endpoint: median tumor weight (est.), dose: 200.0 mg/kg/injection, schedule: Q01DX009 (ip), vehicle: distilled water + Tween-80, higher = larger tumour). For the setting “endpoint: median tumor weight (est.), dose: 300.0 mg/kg/injection, schedule: Q01DX009 (ip), vehicle: distilled water + Tween-80, higher = larger tumour”, the T/C is 91 % of control.

Consider `CNNCc1ccc(C(=O)NC(C)C)cc1`, for which the T/C reads like this: (endpoint: median survival time, dose: 40.0 mg/kg/injection, schedule: Q01DX009 (ip), vehicle: Klucel (hydroxypropylcellulose) (HPC), higher = longer survival) 102 % of control; (endpoint: median survival time, dose: 80.0 mg/kg/injection, schedule: Q01DX009 (ip), vehicle: Klucel (hydroxypropylcellulose) (HPC), higher = longer survival) 113 % of control; (endpoint: median survival time, dose: 160.0 mg/kg/injection, schedule: Q01DX009 (ip), vehicle: Klucel (hydroxypropylcellulose) (HPC), higher = longer survival) 102 % of control and 115 % of control; (endpoint: median survival time, dose: 320.0 mg/kg/injection, schedule: Q01DX009 (ip), vehicle: Klucel (hydroxypropylcellulose) (HPC), higher = longer survival) 95 % of control.

For the molecule `CCCCS(=O)CC(CO)NC(=O)/C=C/c1c(C)[nH]c(=O)[nH]c1=O` (stereo unspecified), the T/C (endpoint: median survival time, dose: 1.25 mg/kg/injection, schedule: Q01DX009 (ip), vehicle: water, higher = longer survival) was 100 % of control; the T/C (endpoint: median survival time, dose: 5.0 mg/kg/injection, schedule: Q01DX009 (ip), vehicle: water, higher = longer survival) is 100 % of control; the T/C (endpoint: median survival time, dose: 10.0 mg/kg/injection, schedule: Q01DX009 (ip), vehicle: water, higher = longer survival) is 116 % of control.

`O=C(O)CC(NC(=O)CP(=O)(O)O)C(=O)O` (stereo unspecified): the T/C reads like this: (endpoint: median survival time, dose: 153.0 mg/kg/injection, schedule: Q01DX009 (ip), vehicle: saline, higher = longer survival) 110 % of control; (endpoint: median survival time, dose: 1140.0 mg/kg/injection, schedule: Q01DX001 (ip), vehicle: saline, higher = longer survival) 114 % of control.

Take `O=C1NC2(CCCCC2)C(=O)N1CCN(CCCl)CCCl`: the T/C reads like this: (endpoint: median survival time, dose: 1.5 mg/kg/injection, schedule: Q01DX009 (ip), vehicle: saline with Tween-80, higher = longer survival) 106 % of control; (endpoint: median survival time, dose: 3.0 mg/kg/injection, schedule: Q01DX009 (ip), vehicle: saline with Tween-80, higher = longer survival) 96 % of control; (endpoint: median survival time, dose: 6.0 mg/kg/injection, schedule: Q01DX009 (ip), vehicle: saline with Tween-80, higher = longer survival) 118 % of control.
